# Data from ChEMBL document CHEMBL6121004, “Design, synthesis, and biological evaluation of Ponatinib-based N-Phenylpyrimidine-2-amine derivatives as novel fibroblast growth factor receptor 4 (FGFR4) selective inhibitors” (Eur J Med Chem, 2025).
# The source made the active and inactive calls. No cut-off for these calls is given here.
# Experiments:
# Huh-7 [1] = test: Induction of apoptosis in human Huh-7 cells assessed as late apoptotic cells at 1 uM incubated for 48 hrs by annexin V-FITC/propidium iodide staining based flow cytometry analysis (reference value: 5.20%); type: functional
# Homo sapiens = species on record: Homo sapiens; test: Inhibition of SRC (unknown origin) at 1 uM relative to control
# [2] = Toxicity in male nude mouse implanted with human Huh-7 cells assessed as body weight loss at 12.5 to 50 mg/kg, ip administered for 15 days; type: organism-based; details: in vivo, 360 h, dose 12.5-50 mg/kg, time 15 day
# Hep3B [3] = test: Inhibition of MAPK phosphorylation in human Hep3B cells incubated for 48 hrs by Western blot analysis; type: cell-based; details: dose 0.25-1 µM
# Huh-7 [4] = test: Induction of apoptosis in human Huh-7 cells assessed as necrotic cells at 0.5 uM incubated for 48 hrs by annexin V-FITC/propidium iodide staining based flow cytometry analysis (reference value: 5.20%); type: functional
# [5] = Toxicity in male nude mouse implanted with human Huh-7 cells assessed as lung damage at 12.5 to 50 mg/kg, ip administered for 15 days; type: organism-based; details: in vivo, 360 h, dose 12.5-50 mg/kg, time 15 day
# Huh-7 [6] = test: Induction of apoptosis in human Huh-7 cells assessed as early apoptotic cells at 0.1 uM incubated for 48 hrs by annexin V-FITC/propidium iodide staining based flow cytometry analysis (reference value: 4.59%); type: functional
# Hep 3B2 [7] = test: Induction of apoptosis in human Hep3B cells assessed as viable cells at 0.25 uM incubated for 48 hrs by annexin V-FITC/propidium iodide staining based flow cytometry analysis (reference value: 84.91%); type: functional; details: read-out: Activity
# Huh-7 [8] = test: Induction of apoptosis in human Huh-7 cells assessed as late apoptotic cells at 0.5 uM incubated for 48 hrs by annexin V-FITC/propidium iodide staining based flow cytometry analysis (reference value: 5.20%); type: functional
# Hep 3B2 [9] = test: Induction of apoptosis in human Hep3B cells assessed as late apoptotic cells at 0.25 uM incubated for 48 hrs by annexin V-FITC/propidium iodide staining based flow cytometry analysis (reference value: 5.20%); type: functional
# [10] = biological target: Tyrosine-protein kinase ABL2 (Homo sapiens) (UniProt P42684); test: Inhibition of ABL2 (unknown origin) at 1 uM relative to control
# Hep 3B2 [11] = test: Induction of apoptosis in human Hep3B cells assessed as late apoptotic cells at 1 uM incubated for 48 hrs by annexin V-FITC/propidium iodide staining based flow cytometry analysis (reference value: 5.20%); type: functional
# Hep 3B2 [12] = test: cells; details: Homo sapiens, Hep3B, 72 h
# Description: Antiproliferative activity against human Hep3B cells assessed as inhibition of cell proliferation incubated for 72 hrs by MTT assay
# Hep 3B2 [13] = test: Induction of apoptosis in human Hep3B cells assessed as viable cells at 0.5 uM incubated for 48 hrs by annexin V-FITC/propidium iodide staining based flow cytometry analysis (reference value: 84.91%); type: functional; details: read-out: Activity
# [14] = Half life in BALB/c male mouse at 1 mg/kg, iv measured upto 24 hrs by LC-MS/MS analysis; type: ADME, organism-based; details: in vivo
# Huh-7 [15] = test: Induction of apoptosis in human Huh-7 cells assessed as late apoptotic cells at 0.1 uM incubated for 48 hrs by annexin V-FITC/propidium iodide staining based flow cytometry analysis (reference value: 5.20%); type: functional
# [16] = AUC (0 to t) in BALB/c male mouse at 1 mg/kg, iv measured upto 24 hrs by LC-MS/MS analysis; type: ADME, organism-based; details: in vivo
# Hep 3B2 [17] = test: Induction of apoptosis in human Hep3B cells assessed as late apoptotic cells at 0.5 uM incubated for 48 hrs by annexin V-FITC/propidium iodide staining based flow cytometry analysis (reference value: 5.20%); type: functional
# [18] = Toxicity in male nude mouse implanted with human Huh-7 cells assessed as spleen damage at 12.5 to 50 mg/kg, ip administered for 15 days; type: organism-based; details: in vivo, 360 h, dose 12.5-50 mg/kg, time 15 day
# Hep 3B2 [19] = test: Effect on FGFR4 level in human Hep3B cells at 0.25 to 1 uM incubated for 48 hrs by Western blot analysis; type: functional, cell-based; details: dose 0.25-1 µM
# [20] = Oral bioavailability in BALB/c male mouse at 10 mg/kg measured upto 24 hrs by LC-MS/MS analysis; type: ADME, organism-based; details: in vivo
# Hep3B [21] = test: Inhibition of MAPK phosphorylation in human Hep3B cells at 0.4 uM incubated for 48 hrs by Western blot analysis; type: cell-based
# Hep 3B2 [22] = test: Induction of apoptosis in human Hep3B cells assessed as early apoptotic cells at 0.25 uM incubated for 48 hrs by annexin V-FITC/propidium iodide staining based flow cytometry analysis (reference value: 4.69%); type: functional
# Huh-7 [23] = test: Induction of apoptosis in human Huh-7 cells assessed as necrotic cells at 0.1 uM incubated for 48 hrs by annexin V-FITC/propidium iodide staining based flow cytometry analysis (reference value: 5.20%); type: functional
# [24] = Cmax in BALB/c male mouse at 10 mg/kg, po measured upto 24 hrs by LC-MS/MS analysis; type: ADME, organism-based; details: in vivo
# Huh-7 [25] = test: Induction of apoptosis in human Huh-7 cells assessed as necrotic cells at 1 uM incubated for 48 hrs by annexin V-FITC/propidium iodide staining based flow cytometry analysis (reference value: 5.20%); type: functional
# Hep 3B2 [26] = test: Induction of apoptosis in human Hep3B cells assessed as early apoptotic cells at 1 uM incubated for 48 hrs by annexin V-FITC/propidium iodide staining based flow cytometry analysis (reference value: 4.69%); type: functional
# Huh-7 [27] = test: Induction of apoptosis in human Huh-7 cells assessed as early apoptotic cells at 0.5 uM incubated for 48 hrs by annexin V-FITC/propidium iodide staining based flow cytometry analysis (reference value: 4.59%); type: functional
# Hep 3B2 [28] = test: Induction of apoptosis in human Hep3B cells assessed as viable cells at 1 uM incubated for 48 hrs by annexin V-FITC/propidium iodide staining based flow cytometry analysis (reference value: 84.91%); type: functional; details: read-out: Activity
# Hep 3B2 [29] = test: Induction of apoptosis in human Hep3B cells assessed as necrotic cells at 0.25 uM incubated for 48 hrs by annexin V-FITC/propidium iodide staining based flow cytometry analysis (reference value: 5.20%); type: functional
# [30] = Volume of distribution at steady state in BALB/c male mouse at 1 mg/kg, iv measured upto 24 hrs by LC-MS/MS analysis; type: ADME, organism-based; details: in vivo, read-out: Vdss
# [31] = Antiproliferative activity against human L02 cells assessed as inhibition of cell proliferation incubated for 72 hrs by MTT assay; type: toxicity, cell-based
# Hep 3B2 [32] = test: Induction of apoptosis in human Hep3B cells assessed as necrotic cells at 1 uM incubated for 48 hrs by annexin V-FITC/propidium iodide staining based flow cytometry analysis (reference value: 5.20%); type: functional
# Hep 3B2 [33] = test: Induction of apoptosis in human Hep3B cells assessed as early apoptotic cells at 0.5 uM incubated for 48 hrs by annexin V-FITC/propidium iodide staining based flow cytometry analysis (reference value: 4.69%); type: functional
# [34] = Toxicity in male nude mouse implanted with human Huh-7 cells assessed as kidney damage at 12.5 to 50 mg/kg, ip administered for 15 days; type: organism-based; details: in vivo, 360 h, dose 12.5-50 mg/kg, time 15 day
# Hep 3B2 [35] = test: Effect on MAPK level in human Hep3B cells at 0.25 to 1 uM incubated for 48 hrs by Western blot analysis; type: functional, cell-based; details: dose 0.25-1 µM
# Huh-7 [36] = test: Induction of apoptosis in human Huh-7 cells assessed as viable cells at 1 uM incubated for 48 hrs by annexin V-FITC/propidium iodide staining based flow cytometry analysis (reference value: 84.91%); type: functional; details: read-out: Activity
# Sequence of Tyrosine-protein kinase ABL2 (Homo sapiens) (P42684 whole entry): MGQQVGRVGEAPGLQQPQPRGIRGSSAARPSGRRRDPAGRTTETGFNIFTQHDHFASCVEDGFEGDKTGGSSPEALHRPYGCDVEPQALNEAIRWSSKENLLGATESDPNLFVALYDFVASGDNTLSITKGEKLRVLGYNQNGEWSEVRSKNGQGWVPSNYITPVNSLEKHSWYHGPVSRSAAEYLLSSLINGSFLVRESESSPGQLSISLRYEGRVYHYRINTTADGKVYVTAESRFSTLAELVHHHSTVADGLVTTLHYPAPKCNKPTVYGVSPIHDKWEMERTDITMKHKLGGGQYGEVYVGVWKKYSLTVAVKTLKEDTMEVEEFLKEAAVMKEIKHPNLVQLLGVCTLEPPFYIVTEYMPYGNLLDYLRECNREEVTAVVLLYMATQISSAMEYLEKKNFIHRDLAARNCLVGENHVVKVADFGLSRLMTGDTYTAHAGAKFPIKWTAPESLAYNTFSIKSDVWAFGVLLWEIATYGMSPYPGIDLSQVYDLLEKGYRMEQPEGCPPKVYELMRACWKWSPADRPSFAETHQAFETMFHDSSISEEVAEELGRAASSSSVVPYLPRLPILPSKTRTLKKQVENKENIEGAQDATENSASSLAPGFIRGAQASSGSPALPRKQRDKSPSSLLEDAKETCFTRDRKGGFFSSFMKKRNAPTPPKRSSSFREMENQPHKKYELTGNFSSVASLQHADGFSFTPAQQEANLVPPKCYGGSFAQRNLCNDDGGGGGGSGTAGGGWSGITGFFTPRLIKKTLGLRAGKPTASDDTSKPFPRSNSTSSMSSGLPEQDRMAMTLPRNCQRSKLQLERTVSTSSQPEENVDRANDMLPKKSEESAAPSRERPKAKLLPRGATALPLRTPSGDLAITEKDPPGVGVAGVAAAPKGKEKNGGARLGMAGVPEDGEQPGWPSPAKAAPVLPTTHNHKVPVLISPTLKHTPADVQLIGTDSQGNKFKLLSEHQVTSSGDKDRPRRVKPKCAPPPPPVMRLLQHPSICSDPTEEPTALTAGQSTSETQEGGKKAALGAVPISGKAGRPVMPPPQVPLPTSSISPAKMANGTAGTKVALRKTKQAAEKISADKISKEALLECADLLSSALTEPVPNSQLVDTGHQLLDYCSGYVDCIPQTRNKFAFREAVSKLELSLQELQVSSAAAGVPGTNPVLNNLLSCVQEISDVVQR
smiles,measurement,setting,value
C=CC(=O)Nc1cccc(C)c1Nc1ncc(C#Cc2cccc(C(=O)Nc3ccc(CN4CCN(C)CC4)c(C(F)(F)F)c3)c2)cn1,Activity,Huh-7 [1],25.23%
same,inhibition,Homo sapiens,< 70%
same,Activity,[2],Non-toxic
same,inhibition,Hep3B [3],Dose-dependent-effect
same,Activity,Huh-7 [4],8.41%
same,Activity,[5],Non-toxic
same,Activity,Huh-7 [6],3.69%
same,viability at 0.25 µM,Hep 3B2 [7],80.8%
same,Activity,Huh-7 [8],11.2%
same,Activity,Hep 3B2 [9],9.17%
same,inhibition,[10],< 70%
same,Activity,Hep 3B2 [11],22.07%
same,IC50,Hep 3B2 [12],70 nM
same,viability at 0.5 µM,Hep 3B2 [13],68.9%
same,half-life,[14],47.4 min
same,Activity,Huh-7 [15],5.12%
same,AUC(0-t) at 24 h,[16],241 ng·h/mL
same,Activity,Hep 3B2 [17],18.41%
same,Activity,[18],Non-toxic
same,Activity,Hep 3B2 [19],Active
same,bioavailability,[20],17.8%
same,inhibition,Hep3B [21],Active
same,Activity,Hep 3B2 [22],4.38%
same,Activity,Huh-7 [23],2.37%
same,Cmax,[24],91.3 ng/mL
same,Activity,Huh-7 [25],9.67%
same,Activity,Hep 3B2 [26],9.61%
same,Activity,Huh-7 [27],5.07%
same,viability at 1 µM,Hep 3B2 [28],63.2%
same,Activity,Hep 3B2 [29],5.62%
same,Vd,[30],3.52 L/kg
same,IC50 at 72 h,[31],> 10000 nM
same,Activity,Hep 3B2 [32],5.13%
same,Activity,Hep 3B2 [33],5.73%
same,Activity,[34],Non-toxic
same,Activity,Hep 3B2 [35],Active
same,viability at 1 µM,Huh-7 [36],63%
